Measurements: US6600028B1, “Tricyclic base analogues” (Amersham Pharmacia Biotech UK Limited, priority 1997, dated 2003)
Read-outs that look alike come from different tables or passages of the source. Blank lines part the entries; values can stand above or below the compound they belong to.

Assays:
[1] = system: terminal deoxynucleotidyl transferase; assay: Oligonucleotide tailing reaction; format: biochemical; conditions: 64 μM dNTP or analogue triphosphate, 25 U enzyme, 90 minutes at 37° C.
Description: A 15 mer primer (sequence: 5′ TGC ATG TGC TGG AGA 3′) (SEQ ID NO. 6) and 8 to 32 base oligonucleotide markers were 5′ end labelled with [y^33P] ATP and T4 polynucleotide kinase. Reactions were boiled for 5 minutes after labelling to remove any PNK activity. Four picomoles of the labelled primer, 25 U terminal deoxynucleotidyl transferase and 64 μM dNTP or analogue triphosphate were incubated in 25 μl 100 mM cacodylate buffer pH7.2, 2 mM CoCl2 and 0.2 mM 2-mercaptoethanol for 90 minutes at 37° C. […] Autoradiography using Biomax film was carried out on the dry gel.

[2] = target: T1, Taq polymerase (Thermus aquaticus, UniProt P19821); assay: Primer extension assay, incorporation of dSTP into DNA by Taq polymerase; format: biochemical; conditions: 50 μM dSTP, 72° C., 15 minutes, opposite T or C in template, not opposite A or G
T1 construct: purchased Promega
T1 sequence (P19821 whole entry): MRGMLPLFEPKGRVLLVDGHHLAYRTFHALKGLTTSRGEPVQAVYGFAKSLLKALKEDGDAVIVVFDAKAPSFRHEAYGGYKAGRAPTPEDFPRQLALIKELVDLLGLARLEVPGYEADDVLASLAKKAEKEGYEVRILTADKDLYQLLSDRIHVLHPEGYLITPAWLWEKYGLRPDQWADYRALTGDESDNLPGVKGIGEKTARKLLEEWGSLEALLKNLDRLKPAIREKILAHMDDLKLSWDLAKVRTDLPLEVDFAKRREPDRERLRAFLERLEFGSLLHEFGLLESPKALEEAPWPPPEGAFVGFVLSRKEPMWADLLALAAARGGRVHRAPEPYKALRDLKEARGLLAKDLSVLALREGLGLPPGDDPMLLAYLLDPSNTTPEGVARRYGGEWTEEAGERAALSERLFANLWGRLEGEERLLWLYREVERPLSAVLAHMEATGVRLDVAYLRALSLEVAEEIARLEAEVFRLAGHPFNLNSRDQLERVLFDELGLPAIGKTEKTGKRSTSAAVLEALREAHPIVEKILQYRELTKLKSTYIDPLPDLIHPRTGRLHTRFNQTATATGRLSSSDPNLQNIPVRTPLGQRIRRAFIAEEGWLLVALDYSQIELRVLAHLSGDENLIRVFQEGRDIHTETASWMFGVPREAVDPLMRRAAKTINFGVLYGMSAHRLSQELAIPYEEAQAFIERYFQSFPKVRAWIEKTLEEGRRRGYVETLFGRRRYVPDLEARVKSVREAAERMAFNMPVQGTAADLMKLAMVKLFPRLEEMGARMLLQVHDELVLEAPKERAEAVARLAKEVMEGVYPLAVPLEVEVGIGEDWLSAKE
Description: (§1) a) The incorporation of dSTP into DNA by DNA polymerases was examined in primer extension assays. […] Each reaction contained 1 pmol of a 24-mer oligonucleotide: 5′ […] (SEQ ID NO. 1) annealed to 0.25 pmol of a complementary 20-mer oligonucleotide 5′ […] (SEQ ID NO. 2) which was labelled at the 5′ end with 32P, and 1 μl of 10×buffer (for Taq polymerase: 500 mM KCl, 100 mM Tris pH 9 at room temperature, 1% Triton-X 100, 15 mM MgCl2; for the other two enzymes: 50 mM MgCl2, 100 mM Tris pH 7.5 at room temperature, 75 mM DTT). Normal dNTPs, in various combinations, were added, as required, to 50 μM final concentration; dSTP was also used at 50 μM final concentration.
(§2) For each enzyme four reactions were performed:
(§3) iv) plus dSTP, TTP and dCTP.
(§4) A single unit of the appropriate polymerase was added to start each of the reactions; these were incubated for 15 minutes (at 72° C. under mineral oil for Taq, at 37° C. for Pol I derivatives) before being terminated by the addition of 5 μl of termination mix (95% formamide, 20 mM EDTA, 0.05% Bromophenol Blue, 0.05% Xylene Cyanol FF). The reactions were heated to 70° C. for ten minutes before electrophoresis on a 20% polyacrylamide/7M urea gel, which was then exposed to autoradiography film.

[3] = target: T2, Klenow fragment of E. coli DNA polymerase I (Escherichia coli, UniProt P00582); assay: Primer extension assay, incorporation of dSTP into DNA by Klenow fragment; format: biochemical; conditions: 50 μM dSTP, 37° C., 15 minutes, opposite T or C in template, not opposite A or G
T2 construct: the Klenow fragment of E. coli DNA polymerase I (Boehringer Mannheim); purchased Boehringer Mannheim
T2 sequence (P00582 324-928): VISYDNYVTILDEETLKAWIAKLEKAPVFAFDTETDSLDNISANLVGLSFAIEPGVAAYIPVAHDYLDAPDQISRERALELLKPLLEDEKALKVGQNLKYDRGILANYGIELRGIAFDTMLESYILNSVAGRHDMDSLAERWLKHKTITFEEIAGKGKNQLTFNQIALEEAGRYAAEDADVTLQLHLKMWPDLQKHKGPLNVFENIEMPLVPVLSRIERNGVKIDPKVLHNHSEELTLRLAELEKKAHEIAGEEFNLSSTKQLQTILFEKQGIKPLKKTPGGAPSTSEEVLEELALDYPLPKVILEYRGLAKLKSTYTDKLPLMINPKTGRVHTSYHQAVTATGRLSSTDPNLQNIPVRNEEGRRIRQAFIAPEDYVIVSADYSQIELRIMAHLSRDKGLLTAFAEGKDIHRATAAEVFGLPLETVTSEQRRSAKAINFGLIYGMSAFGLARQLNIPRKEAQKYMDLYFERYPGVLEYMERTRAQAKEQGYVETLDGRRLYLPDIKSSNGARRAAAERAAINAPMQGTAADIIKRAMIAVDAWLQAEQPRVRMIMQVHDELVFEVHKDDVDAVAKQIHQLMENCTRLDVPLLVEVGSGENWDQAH
Description: as §1, §2, §3, §4

[4] = target: 3′ to 5′ exonuclease-free version of Klenow fragment (Escherichia coli, UniProt P00582, D355A/E357A); conditions: 50 μM dSTP, 37° C., 15 minutes, opposite T or C in template, not opposite A or G
Sequence of 3′ to 5′ exonuclease-free version of Klenow fragment (P00582 324-928 D355A/E357A): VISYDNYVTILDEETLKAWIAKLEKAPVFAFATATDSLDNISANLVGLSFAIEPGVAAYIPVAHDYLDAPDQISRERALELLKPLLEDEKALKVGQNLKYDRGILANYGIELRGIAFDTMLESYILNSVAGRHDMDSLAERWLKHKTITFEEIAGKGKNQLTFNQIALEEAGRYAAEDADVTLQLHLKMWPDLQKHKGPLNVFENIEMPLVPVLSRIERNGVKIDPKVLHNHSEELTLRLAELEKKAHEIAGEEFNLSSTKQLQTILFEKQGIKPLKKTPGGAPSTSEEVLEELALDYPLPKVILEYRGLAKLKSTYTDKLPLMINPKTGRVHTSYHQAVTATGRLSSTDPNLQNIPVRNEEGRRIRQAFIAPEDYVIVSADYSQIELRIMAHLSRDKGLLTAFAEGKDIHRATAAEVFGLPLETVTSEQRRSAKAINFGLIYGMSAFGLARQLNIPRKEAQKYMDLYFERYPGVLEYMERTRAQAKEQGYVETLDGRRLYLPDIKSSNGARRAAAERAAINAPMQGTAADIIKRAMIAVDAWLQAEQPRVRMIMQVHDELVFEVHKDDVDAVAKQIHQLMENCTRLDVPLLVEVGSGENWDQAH
Description: as §1, §2, §3, §4

[5] = system: ThermoSequenase DNA polymerase; assay: Cycle sequencing reactions with radiolabelled terminators; format: biochemical; conditions: for length of sequence obtained: dSTP 40 μM in place of dATP ("A" mix), dITP 37.5 μM or 8-oxo-dGTP 160 μM in place of dGTP
Description: The incorporation of dSTP and the pyrazolo compound (4.11) into DNA by ThermoSequenase™ DNA polymerase was examined in cycle sequencing reactions.
The following nucleotide mixes were made up:
a) Standard dNTP mix 7.5 μM dATP, dCTP, dGTP, dTTP
b) Standard dITP mix 7.5 μM dATP, dCTP, dTTP and 37.5 μM dITP
c) 8-oxo-dGTP mix 7.5 μM dATP, dCTP, dTTP and 160 μM 8-oxo-dGTP
d) dSTP “A” mix 7.5 μM dCTP, dGTP, dTTP and 40 μM dSTP
e) Compound (4.11) “A” mix 7.5 μM dCTP, dGTP, dTTP and 40 μM compound (4.11)
f) dSTP “G” mix 7.5 μM dATP, dCTP, dTTP and 80 μM dSTP
g) Compound (4.11) “G” mix 7.5 μM dATP, dCTP, dTTP and 80 μM compound (4.11)
The following reaction master mix was made up:
All reagents were from ThermoSequenase radiolabelled terminator cycle sequencing kit (US79750 Amersham life Science). [α^33P] ddNTP's were from Amersham Pharmacia Biotech (code AH9539).
All reactions were overlayed with mineral oil and then cycled as follows:
The reactions were then heated at 95° C. for 2 minutes before loading onto a 6% polyacrylamide 7M urea gel. The gel was run at 48 mA for 90 minutes. After fixing in 10% acetic acid/10% methanol the gel was dried and exposed to Kodak Biomax autoradiography film.

[6] = system: 3′ to 5′ exonuclease-free version of Klenow fragment of DNA polymerase I (EFK); conditions: for primer extension product, analogue triphosphate as only nucleotide: Template 1, 20 μM or 80 μM analogue triphosphate alone, 37° C., 3 minutes
Description: b) A second primer extension assay was used to compare the triphosphate of the pyrrolo compound (1.14) (dSTP) with the triphosphate of the pyrazolo compound (4.11) as substrates for the 3′ to 5′ exonuclease-free version of Klenow fragment of DNA polymerase I (EFK). The assay used a ^33P 5′ end labelled 15 mer primer hybridised to one of two different 24 mer templates.
One picomole ^33P labelled primer was hybridised to 2 picomoles of template in ×2 Klenow buffer. To this was added either 4 μM dNTPαS, 20 μM or 80 μM analogue triphosphate or a mixture of 4 μM dNTPαS and 20 or 80 μM analogue triphosphate. Two units EFK and 2 mU inorganic pyrophosphatase were used per reaction. Primer alone, primer plus template, primer plus template plus enzyme controls were also carried out. The reactions were incubated at 37° C. for 3 minutes. Reactions were then stopped by the addition of formamide EDTA stop solution. Reaction products were separated on a 19% polyacrylamide 7M urea gel and the product fragments sized by comparison with a ^33P labelled 8 to 32 base oligonucleotide ladder after exposure to Kodak Biomax autoradiography film.

length of tail added to 15 mer primer [1]: predominantly by a single base
Compound: 1-(2′-deoxy-5′-O-triphosphate-ribofuranosyl)-pyrazolo[3,4-d]pyrimidine[2,3-c]dihydro-oxazepine [Compound 4.11]

Compound: 9-(2′-Deoxy-5′-O-triphosphate-ribofuranosyl)-pyrrolo[4,3,2-de]pyrimido[4,5-c]dihydro-oxazepine [dSTP]
incorporation of dSTP into DNA [2]: can incorporate dSTP as either dGTP or as dATP | incorporation of dSTP into DNA [3]: can incorporate dSTP as either dGTP or as dATP | incorporation of dSTP into DNA [4]: can incorporate dSTP as either dGTP or as dATP | length of tail added to 15 mer primer [1]: intermediate in size between those of dATP and dGTP | length of sequence obtained ([5]; M13 mp18 template, 10 cycles): > 250 bases | quality as polymerase substrate ([5]; conclusion from cycle sequencing, compared with dITP): very good polymerase substrate | native base in whose place the analogue is incorporated ([6]; Template 1): efficiently incorporated in place of both G and A | primer extension product, analogue triphosphate as only nucleotide [6]: +3 product | native base in whose place the analogue is incorporated ([6]; Template 2): efficiently incorporated as a single G but that multiple additions as G are slow | primer extension products with mixture of dTTPαS and analogue triphosphate ([6]; Template 2, no +1 product): +2, +3 and +5 products

Compound: Nc1nc2c([nH]c(=O)n2[C@H]2C[C@H](O)[C@@H](COP(=O)(O)OP(=O)(O)OP(=O)(O)O)O2)c(=O)[nH]1 [8-oxo dGTP, 8-oxo-dGTP]
length of sequence obtained ([5]; M13 mp18 template, 10 cycles): 15-20 bases

Compound: O=P(O)(O)OP(=O)(O)OP(=O)(O)OCC1OC(n2nc3c4c(ncnc42)NOCC3)CC1O (stereo not shown) [Compound 4.11, 1-(2′-deoxy-5′-O-triphosphate-ribofuranosyl)-pyrazolo[3,4-d]pyrimidine[2,3-c]dihydro-oxazepine]
further extension after incorporation of two analogue residues ([6]; Template 1): did not occur | native base in whose place the analogue is incorporated ([6]; Template 1): behaving as A | primer extension product, analogue triphosphate as only nucleotide [6]: did not extend | primer extension product in the presence of dGTP ([6]; Template 1, analogue triphosphate plus dGTP): +3 product | effect of incorporation of two analogue residues ([6]; Template 2): resulted in termination | native base in whose place the analogue is incorporated ([6]; Template 2): behaved as A rather than G

length of tail added to 15 mer primer [1]: greater than 100 bases
Compound: Nc1ncnc2c1ncn2[C@H]1C[C@H](O)[C@@H](COP(=O)(O)OP(=O)(O)OP(=O)(O)O)O1 [dATP, reference compound]

length of tail added to 15 mer primer [1]: ~50 bases
Compound: Nc1nc2c(ncn2[C@H]2C[C@H](O)[C@@H](COP(=O)(O)OP(=O)(O)OP(=O)(O)O)O2)c(=O)[nH]1 [dGTP, reference compound]

Compound: O=c1[nH]cnc2c1ncn2[C@H]1C[C@H](O)[C@@H](COP(=O)(O)OP(=O)(O)OP(=O)(O)O)O1 [dITP]
band intensities of sequence ([5]; M13 mp18 template, 10 cycles, autoradiography): uneven band intensities especially in the G track | length of sequence obtained ([5]; M13 mp18 template, 10 cycles): < 200 bases
